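The compound was tested at five concentrations on cells cultured in 96-well plates, with a 48-hour exposure period. Here, GI50 denotes the concentration required for 50% inhibition of growth. TGI: concentration producing complete growth inhibition.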
Legend:
Assay in all cases: inhibition of tumour cell growth, NCI panel, 48 h
SK-MEL-5 melanoma = tested on: SK-MEL-5 melanoma
T-47D breast = tested on: T-47D breast
NCI-H23 lung = tested on: NCI-H23 lung
HL-60(TB) leukemia = tested on: HL-60(TB) leukemia
NCI/ADR-RES ovarian = tested on: NCI/ADR-RES ovarian
U251 CNS = tested on: U251 CNS
HOP-92 NSCLC = tested on: HOP-92 NSCLC
NCI-H460 lung = tested on: NCI-H460 lung
HT29 colon = tested on: HT29 colon
OVCAR-8 ovarian = tested on: OVCAR-8 ovarian
RPMI-8226 leukemia = tested on: RPMI-8226 leukemia
SNB-75 CNS = tested on: SNB-75 CNS
786-0 renal = tested on: 786-0 renal
UACC-257 melanoma = tested on: UACC-257 melanoma
SR leukemia = tested on: SR leukemia
NCI-H226 lung = tested on: NCI-H226 lung
LOX IMVI melanoma = tested on: LOX IMVI melanoma
PC-3 prostate = tested on: PC-3 prostate
SW-620 colon = tested on: SW-620 colon
CCRF-CEM leukemia = tested on: CCRF-CEM leukemia
SF-539 CNS = tested on: SF-539 CNS
RXF 393 renal = tested on: RXF 393 renal
A498 renal = tested on: A498 renal
MDA-MB-435 = tested on: MDA-MB-435
TK-10 renal = tested on: TK-10 renal
COLO 205 colon = tested on: COLO 205 colon
K-562 leukemia = tested on: K-562 leukemia
HCT-116 colon = tested on: HCT-116 colon
SNB-19 CNS = tested on: SNB-19 CNS
OVCAR-4 ovarian = tested on: OVCAR-4 ovarian
EKVX NSCLC = tested on: EKVX NSCLC
NCI-H522 lung = tested on: NCI-H522 lung
UACC-62 melanoma = tested on: UACC-62 melanoma
SK-MEL-2 melanoma = tested on: SK-MEL-2 melanoma
HCT-15 colon = tested on: HCT-15 colon
DU-145 prostate = tested on: DU-145 prostate
HS 578T breast = tested on: HS 578T breast
MDA-MB-468 breast = tested on: MDA-MB-468 breast
CAKI-1 renal = tested on: CAKI-1 renal
M14 melanoma = tested on: M14 melanoma
HCC-2998 colon = tested on: HCC-2998 colon
BT-549 breast = tested on: BT-549 breast
MOLT-4 leukemia = tested on: MOLT-4 leukemia
MDA-MB-231 breast = tested on: MDA-MB-231 breast
SK-OV-3 ovarian = tested on: SK-OV-3 ovarian
OVCAR-3 ovarian = tested on: OVCAR-3 ovarian
A549 NSCLC = tested on: A549 NSCLC
SK-MEL-28 melanoma = tested on: SK-MEL-28 melanoma
IGROV1 ovarian = tested on: IGROV1 ovarian
ACHN renal = tested on: ACHN renal
HOP-62 NSCLC = tested on: HOP-62 NSCLC
KM12 colon = tested on: KM12 colon
MALME-3M melanoma = tested on: MALME-3M melanoma
UO-31 renal = tested on: UO-31 renal
OVCAR-5 ovarian = tested on: OVCAR-5 ovarian
SF-268 CNS = tested on: SF-268 CNS
MCF7 breast = tested on: MCF7 breast
SN12C renal = tested on: SN12C renal
SF-295 CNS = tested on: SF-295 CNS

Structure (SMILES): COc1ccc(NC(=O)Cn2c(/C=C/c3cccc(Br)c3)nc3ccccc3c2=O)cc1
- GI50 (SK-MEL-5 melanoma): > 36 µM
- TGI (SK-MEL-5 melanoma): > 36 µM
- GI50 (T-47D breast): > 36 µM
- TGI (T-47D breast): > 36 µM
- GI50 (NCI-H23 lung): 10.5 µM
- TGI (NCI-H23 lung): > 36 µM
- GI50 (HL-60(TB) leukemia): > 36 µM
- TGI (HL-60(TB) leukemia): > 36 µM
- GI50 (NCI/ADR-RES ovarian): 7.1 µM
- TGI (NCI/ADR-RES ovarian): > 36 µM
- GI50 (U251 CNS): 4.68 µM
- TGI (U251 CNS): 13.5 µM
- GI50 (HOP-92 NSCLC): 8.66 µM
- TGI (HOP-92 NSCLC): 32.6 µM
- GI50 (NCI-H460 lung): 15.7 µM
- TGI (NCI-H460 lung): > 36 µM
- GI50 (HT29 colon): > 36 µM
- TGI (HT29 colon): > 36 µM
- GI50 (OVCAR-8 ovarian): 10.5 µM
- TGI (OVCAR-8 ovarian): > 36 µM
- GI50 (RPMI-8226 leukemia): > 36 µM
- TGI (RPMI-8226 leukemia): > 36 µM
- GI50 (SNB-75 CNS): 0.801 µM
- TGI (SNB-75 CNS): 3.27 µM
- GI50 (786-0 renal): 4.9 µM
- TGI (786-0 renal): 14.8 µM
- GI50 (UACC-257 melanoma): > 36 µM
- TGI (UACC-257 melanoma): > 36 µM
- GI50 (SR leukemia): 1.06 µM
- TGI (SR leukemia): > 36 µM
- GI50 (NCI-H226 lung): 1.69 µM
- TGI (NCI-H226 lung): 9.64 µM
- GI50 (LOX IMVI melanoma): 3.02 µM
- TGI (LOX IMVI melanoma): > 36 µM
- GI50 (PC-3 prostate): > 36 µM
- TGI (PC-3 prostate): > 36 µM
- GI50 (SW-620 colon): > 36 µM
- TGI (SW-620 colon): > 36 µM
- GI50 (CCRF-CEM leukemia): > 36 µM
- TGI (CCRF-CEM leukemia): > 36 µM
- GI50 (SF-539 CNS): 2.94 µM
- TGI (SF-539 CNS): 8.06 µM
- GI50 (RXF 393 renal): 4.39 µM
- TGI (RXF 393 renal): 17.6 µM
- GI50 (A498 renal): 9.71 µM
- TGI (A498 renal): 32.5 µM
- GI50 (MDA-MB-435): > 36 µM
- TGI (MDA-MB-435): > 36 µM
- GI50 (TK-10 renal): 5.4 µM
- TGI (TK-10 renal): 13.4 µM
- GI50 (COLO 205 colon): > 36 µM
- TGI (COLO 205 colon): > 36 µM
- GI50 (K-562 leukemia): > 36 µM
- TGI (K-562 leukemia): > 36 µM
- GI50 (HCT-116 colon): 5.67 µM
- TGI (HCT-116 colon): > 36 µM
- GI50 (SNB-19 CNS): 11.4 µM
- TGI (SNB-19 CNS): > 36 µM
- GI50 (OVCAR-4 ovarian): 2.17 µM
- TGI (OVCAR-4 ovarian): 9.94 µM
- GI50 (EKVX NSCLC): > 36 µM
- TGI (EKVX NSCLC): > 36 µM
- GI50 (NCI-H522 lung): 17.6 µM
- TGI (NCI-H522 lung): > 36 µM
- GI50 (UACC-62 melanoma): > 36 µM
- TGI (UACC-62 melanoma): > 36 µM
- GI50 (SK-MEL-2 melanoma): > 36 µM
- TGI (SK-MEL-2 melanoma): > 36 µM
- GI50 (HCT-15 colon): > 36 µM
- TGI (HCT-15 colon): > 36 µM
- GI50 (DU-145 prostate): 13.5 µM
- TGI (DU-145 prostate): > 36 µM
- GI50 (HS 578T breast): 2.73 µM
- TGI (HS 578T breast): 30.8 µM
- GI50 (MDA-MB-468 breast): 6.25 µM
- TGI (MDA-MB-468 breast): > 36 µM
- GI50 (CAKI-1 renal): 14 µM
- TGI (CAKI-1 renal): > 36 µM
- GI50 (M14 melanoma): 31.8 µM
- TGI (M14 melanoma): > 36 µM
- GI50 (HCC-2998 colon): > 36 µM
- TGI (HCC-2998 colon): > 36 µM
- GI50 (BT-549 breast): 3.62 µM
- TGI (BT-549 breast): > 36 µM
- GI50 (MOLT-4 leukemia): > 36 µM
- TGI (MOLT-4 leukemia): > 36 µM
- GI50 (MDA-MB-231 breast): 1.93 µM
- TGI (MDA-MB-231 breast): 8.8 µM
- GI50 (SK-OV-3 ovarian): 7.25 µM
- TGI (SK-OV-3 ovarian): 27.5 µM
- GI50 (OVCAR-3 ovarian): 10.6 µM
- TGI (OVCAR-3 ovarian): > 36 µM
- GI50 (A549 NSCLC): 11.4 µM
- TGI (A549 NSCLC): > 36 µM
- GI50 (SK-MEL-28 melanoma): > 36 µM
- TGI (SK-MEL-28 melanoma): > 36 µM
- GI50 (IGROV1 ovarian): > 36 µM
- TGI (IGROV1 ovarian): > 36 µM
- GI50 (ACHN renal): 1.75 µM
- TGI (ACHN renal): 12.2 µM
- GI50 (HOP-62 NSCLC): 6.47 µM
- TGI (HOP-62 NSCLC): 21 µM
- GI50 (KM12 colon): > 36 µM
- TGI (KM12 colon): > 36 µM
- GI50 (MALME-3M melanoma): 6.56 µM
- TGI (MALME-3M melanoma): 27 µM
- GI50 (UO-31 renal): 4.41 µM
- TGI (UO-31 renal): 15.4 µM
- GI50 (OVCAR-5 ovarian): 15.6 µM
- TGI (OVCAR-5 ovarian): > 36 µM
- GI50 (SF-268 CNS): 13.9 µM
- TGI (SF-268 CNS): > 36 µM
- GI50 (MCF7 breast): 8.56 µM
- TGI (MCF7 breast): > 36 µM
- GI50 (SN12C renal): 14.8 µM
- TGI (SN12C renal): > 36 µM
- GI50 (SF-295 CNS): 6.79 µM
- TGI (SF-295 CNS): > 36 µM
